Patent US20240100058A1, “METHOD FOR SELECTING, ASSESSING, OR PRODUCING SODIUM LAURYL SULFATE AS RAW MATERIAL FOR PHARMACEUTICAL FORMULATION, OR FORMULATION OR THE LIKE CONTAINING SAME” (Chugai Seiyaku Kabushiki Kaisha, priority 2019, published 2024)

Key:
Assay type in all cases: physicochemical
[1] = X-ray powder diffraction of sodium lauryl sulfate lots after storage under accelerated condition; details: for storage period at which new XRPD peaks were first detected: open system, sulfate
[2] = as above; details: for storage period in which XRPD peaks of sodium lauryl sulfate-dodecanol complex were observed: 70° C., relative humidity about 10% (saturated LiCl), open system, stored up to day 11; for storage period at which new XRPD peaks (2θ around 4.9° and 7.4°) were first detected: airtight system, up to 4 days
Protocol: Samples (appropriate amount) of different lots, Lot 1 (production date: 2015.12.22) and Lot 2 (production date: 2017.3.10)) of sodium lauryl sulfate, which were obtained from a single manufacturer and produced on different days, were placed in glass vials and stored in an airtight system under condition 1A (temperature 60° C.) and condition 1B (temperature 70° C.). Samples before storage, stored for 3 days and 4 day were subjected to X-ray powder diffraction (XRPD). Measurement was performed in the conditions shown below.
X-ray powder diffraction method: • Measuring device: X′Pert-Pro MPD (manufactured by PANalytical) • Anti-cathode: Cu • Tube voltage: 45 kV • Tube current: 40 mA • Step width: 0.02 • Scan axis: 20 • Sampling time per step: 43 seconds • Scan range: 3 to 40°
(§1) A sample of sodium lauryl sulfate (about 250 mg) was placed in a glass vial and stored in an open system at a temperature of 70° C. and a relative humidity of about 10% (a saturated aqueous solution of LiCl). Samples of before storage, stored for a single day, 2 days, 3 days, 4 days, 7 days and 11 days were subjected to X-ray powder diffraction performed in the conditions of Example 1.

[3] = Sulfate ion quantification by ion chromatography in sodium lauryl sulfate after accelerated storage; details: for sulfate ion concentration in sample solution: after 4-day storage at 70° C., relative humidity about 10%, about 5 mg sample in 50 mL water
Protocol: as §1
Sulfate ions generated by decomposition of sodium lauryl sulfate in the samples of Lot 1 and Lot 2 after 4-day storage were quantified by ion chromatography shown below.
Sodium lauryl sulfate (about 5 mg) was weighed and water was added up to 50 mL. The solution was irradiated with ultrasonic wave for 15 minutes and filtered by a membrane filter (DISMIC-25HP PTFE 0.45 μm HYDROPHILIC, manufactured by ADVANTEC). The filtrate was passed through a solid-phase extraction cartridge (Dionex OnGuard II RP, manufactured by ThermoFisher Scientific) washed and the eluate was used as a sample solution. Separately, solutions having a sulfate ion concentration of 1 mg/L, 2 mg/L, 3 mg/L, 4 mg/L and 5 mg/L were prepared by use of the sulfate ion standard solution (1 g/L, manufactured by Wako Pure Chemical Industries Ltd.) for ion chromatography and used as the standard solutions. […]
The concentration of sulfate ion in a sample solution was calculated based on the calibration curve prepared by using the standard solutions.
Sodium lauryl sulfate is usually stored at room temperature; however, there are possible cases, e.g., transportation, where it is stored at a higher temperature than room temperature. […] After storage, sulfate ions generated by decomposition of sodium lauryl sulfate in the sample were quantified by ion chromatography shown in Example 4.

[4] = condition 2A: 70° C., relative humidity about 79% (saturated NaCl)
[5] = condition 2B: 70° C., relative humidity about 10% (saturated LiCl), up to 6 days

Compound	storage period at which new XRPD peaks were first detected [1, 4] [days]	physical state of sample after storage ([1]; condition 2A: 70° C., relative humidity about 79%, 2-days and 3-days storage)	storage period at which new XRPD peaks were first detected [1, 5] [days]	storage period in which XRPD peaks of sodium lauryl sulfate-dodecanol complex were observed [2] [days]	storage period at which new XRPD peaks (2θ around 4.9° and 7.4°) were first detected ([2]; condition 1A: 60° C.) [days]	storage period at which new XRPD peaks (2θ around 4.9° and 7.4°) were first detected ([2]; condition 1B: 70° C.) [days]	sulfate ion concentration in sample solution [3] [mg/L]	sulfate ion concentration detected by ion chromatography ([3]; prior storage under Conditions 1-17 of Table 1 (30-40° C. 45 days plus up to 48 hours at up to 60° C.), then 70° C., about 10% RH, 4 days) [mg/L]
CCCCCCCCCCCCOS(=O)(=O)[O-].[Na+] [Lot 1, sodium lauryl sulfate]	1	changed to a liquid state	3	≥ 3	4	3	24.1	
CCCCCCCCCCCCOS(=O)(=O)[O-].[Na+] [Lot 2, sodium lauryl sulfate]	3		> 6	> 11	> 4	> 4	≤ 1	
CCCCCCCCCCCCOS(=O)(=O)[O-].[Na+] [Lot 5, sodium lauryl sulfate]								≤ 1
